Test results as given in patent US20230048576A1, “COMPOUNDS FOR THE TREATMENT OF NEUROPATHIC PAIN” (City of Hope, priority 2019, published 2023).
Several values for one entry are separate records, joined by “and”; a condition that tells them apart may be missing. Identical values can stand only once. Marks after values point to notes of the source that are not given here.

Legend:
[1] = system: CNS activity (motor coordination and balance); assay: Rotarod test; assay type: in vivo, rats; conditions: 150 mg/kg i.p.; 1 and 6 hr post-dosing
Protocol: The objective of this study was to evaluate the potential CNS effects of LR-90 and gabapentin (the latter a widely used drug for neuropathic pain) in rats. LR-90 in 20% HPβCD formulation was delivered at a dose of 50 or 100 mg/kg by oral gavage and gabapentin (150 mg/kg) was delivered by i.p. injection. The rotarod test was employed to measure the CNS activity (motor coordination and balance) and the performance time was recorded at 0 (baseline), 1, 6 and 24 hr post-dose.

[2] = Mean group body weight in Taxol model; assay type: in vivo, rat; conditions: 150 mg/kg IP, Group 2
Protocol: (§1) Neuropathic pain was induced by intraperitoneal administration of Taxol at a dose level of 6 mg/kg on study days 0-6 and 12 mg/kg on study days 7-12. Following injection of Taxol animals experienced pain as was assessed using the von Frey test. The development of neuropathic pain was confirmed by measuring mechanical allodynia (Von Frey test) on study day 13 (for inclusion) and on study day 14 (1 hour and 2 hour post dosing) and 24 hour post first dosing.

[3] = Survival of animals during the study; assay type: in vivo, rat; conditions: 150 mg/kg IP, Group 2
Protocol: as §1

[4] = system: Taxol-induced neuropathic pain; assay: Von Frey test (mechanical allodynia) in Taxol induced model of neuropathic pain; assay type: in vivo, rat; conditions: Group 2; for mean Von Frey force required for withdrawal: 150 mg/kg IP
Protocol: as §1
All data are presented as means±SEM. Each treatment group was compared to the Vehicle group using Two way ANOVA (for VF) followed by Tukey post-test (GraphPad). Vehicle group is compared to naïve group using T-test. A p value<0.05 is considered to represent a significant difference.
The response to tactile allodynia was evaluated using the Von Frey apparatus (Touch Test®). The rat was placed in an enclosure and positioned on a metal mesh surface, but allowed to move freely. A set of dull monofilaments provide an increasing force was applied on the animal plantar surface of the paw. The lowest force requires for animal paw withdrawal was recorded. Low force values recorded in this test indicate a painful state.

In the case of `NCC1(CC(=O)O)CCCCC1` [Gabapentin, reference compound], the “rotarod performance time compared with vehicle control group” value [1] is reported as “significantly decreased”, the “Mean group body weight” value ([2]; Baseline) is reported as 223.38 g and the “Mean group body weight” value ([2]; Day 1) is reported as 235.25 g. The “Mean group body weight (% from baseline)” value ([2]; Day 1) was 105.31%, the “Mean group body weight” value ([2]; Day 3) was 237.50 g and the “Mean group body weight (% from baseline)” value ([2]; Day 3) was 106.31%. The “Mean group body weight” value ([2]; Day 5) was 258.13 g, the “Mean group body weight (% from baseline)” value ([2]; Day 5) was 115.54% and the “Mean group body weight” value ([2]; Day 7) was 269.25 g. The “Mean group body weight (% from baseline)” value ([2]; Day 7) was 120.50%, the “Mean group body weight” value ([2]; Day 9) was 278.75 g and the “Mean group body weight (% from baseline)” value ([2]; Day 9) was 124.74%. For the same compound, the “Mean group body weight” value ([2]; Day 11) was 287.63 g, the “Mean group body weight (% from baseline)” value ([2]; Day 11) was 128.71% and the “Mean group body weight” value ([2]; Day 13) was 289.50 g. The “Mean group body weight (% from baseline)” value ([2]; Day 13) was 129.56%, the “Mean group body weight” value ([2]; Day 16) was 281.00 g and the “Mean group body weight (% from baseline)” value ([2]; Day 16) was 125.68%. The “Mean group body weight” value ([2]; Day 20) was 274.38 g, the “Mean group body weight (% from baseline)” value ([2]; Day 20) was 122.79% and the “Mean group body weight” value ([2]; Day 23) was 263.38 g. For the same compound, the “Mean group body weight (% from baseline)” value ([2]; Day 23) was 117.94%, the “Mean group body weight” value ([2]; Day 26) was 247.75 g and the “Mean group body weight (% from baseline)” value ([2]; Day 26) was 113.52%. The “Survived Animals in %” value ([3]; Study Day 13) was 100%, the “Survived Animals in %” value ([3]; Study Day 14) was 100% and the “Survived Animals in %” value ([3]; Study Day 15) was 100%. The “Survived Animals in %” value ([3]; Study Day 16) was 100%, the “Survived Animals in %” value ([3]; Study Day 17) was 100% and the “Survived Animals in %” value ([3]; Study Day 18) was 100%. The “Survived Animals in %” value ([3]; Study Day 19) was 100%, the “Survived Animals in %” value ([3]; Study Day 20) was 100% and the “Survived Animals in %” value ([3]; Study Day 21) was 100%. The “Survived Animals in %” value ([3]; Study Day 22) was 100%, the “Survived Animals in %” value ([3]; Study Day 23) was 100% and the “Survived Animals in %” value ([3]; Study Day 24) was 88%. For the same compound, the “Survived Animals in %” value ([3]; Study Day 25) was 63%, the “Survived Animals in %” value ([3]; Study Day 28) was 50% and the “mean Von Frey force required for withdrawal” value (from here on “mean Von Frey force required”) ([4]; Baseline) was 57.88 g. The “mean Von Frey force required” value ([4]; Day 13 pre dosing) was 9.81 g, the “mean Von Frey force required” value ([4]; Day 14 1 hour post dosing) was 45.13**** g and the “mean Von Frey force required” value ([4]; Day 14 2 hours post dosing) was 55.75±2.78 g and 55.75**** g. The “mean Von Frey force required” value ([4]; Day 15 24 hours post dosing) was 19.56 g and the “effect on neuropathic pain compared to the vehicle group (Von Frey test)” value ([4]; 150 mg/kg, 1 hour and 2 hour post dosing on study day 14) was “statistically significantly reduced the neuropathic pain”.
